According to US6624182B1, “Hydroxyphenylvinylthiazoles” (Ciba Specialty Chemicals Corporation, priority 1999, dated 2003):

Assays:
Assay in all cases: Determination of the minimum inhibitory concentration (MIC value) in microtitre plates
[1] = tested on: C. albicans; format: cell-based, Candida albicans ATCC 10231; conditions: optical density at 620 nm, 48 hours at 37° C., MIC = ≦20% growth; tested at 100; 10 and 1 ppm (approximate values); (2), (3), (4) at 120; 60; 30; 15; 7.5; 3.75 ppm
Procedure, shortened: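 Candida albicans ATCC 10231 grown overnight in CASO broth, adjusted to 1–5×10^6 CFU/ml then diluted 1:100, was exposed to 1:2 serial dilutions of compound (DMSO) for 48 h at 37 °C. Growth was read as OD620; MIC was the concentration giving ≤20% growth versus control, tested in duplicate.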

[2] = tested on: A. niger; format: cell-based, Aspergillus niger ATCC 6275; conditions: optical density at 620 nm, 5 days at 28° C., MIC = ≦20% growth; tested at 100; 10 and 1 ppm (approximate values); (2), (3), (4) at 120; 60; 30; 15; 7.5; 3.75 ppm
Procedure, shortened: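 A. niger ATCC 6275 spores, adjusted to 1−5×10^6 KBE/ml and diluted 1:100 in Sabouraud 2% glucose bouillon, were exposed to 2-fold dilutions of DMSO-dissolved compounds for 5 days at 28°C. Growth read as OD at 620 nm. MIC is the lowest concentration giving ≤20% growth versus growth control, tested in duplicate.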

[3] = tested on: S. aureus; format: cell-based; conditions: optical density at 620 nm, 48 hours at 37° C., MIC = ≦20% growth; tested at 100; 10 and 1 ppm (approximate values); (2), (3), (4) at 120; 60; 30; 15; 7.5; 3.75 ppm
Procedure, shortened: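 DMSO-dissolved compounds were tested in 1:2 serial dilutions against bacteria in CASO bouillon, from inocula of 1−5×10^6 KBE/ml diluted 1:100. Growth was read by OD 620 nm after 48 h at 37 °C. MIC was the lowest concentration giving ≦20% growth versus the growth control, tested in duplicate.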

[4] = tested on: E. coli; format: cell-based, Escherichia coli NCTC 8196; conditions: optical density at 620 nm, 48 hours at 37° C., MIC = ≦20% growth; tested at 100; 10 and 1 ppm (approximate values); (2), (3), (4) at 120; 60; 30; 15; 7.5; 3.75 ppm
Procedure, shortened: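 E. coli NCTC 8196 grown overnight in CASO bouillon, adjusted to 1−5×10^6 KBE/ml, diluted 1:100 and added to DMSO-dissolved compounds in 1:2 dilution series. Incubated 48 h at 37° C; growth read as OD 620 nm. MIC is the lowest concentration giving ≤20% growth versus growth control; duplicates.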

[5] = tested on: P. aeruginosa; format: cell-based, Pseudomonas aeruginosa CIP A-22; conditions: optical density at 620 nm, 48 hours at 37° C., MIC = ≦20% growth; tested at 100; 10 and 1 ppm (approximate values); (2), (3), (4) at 120; 60; 30; 15; 7.5; 3.75 ppm
Procedure, shortened: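 P. aeruginosa CIP A-22 at 1−5×10^6 KBE/ml, diluted 1:100 in CASO bouillon, exposed to 1:2 serial dilutions of DMSO-dissolved compound for 48 h at 37 °C, in duplicate. Growth read by OD 620 nm; MIC is the lowest concentration giving ≤20% growth relative to growth control.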

Row | SMILES | MIC values in ppm C. albicans [1] | MIC values in ppm A. niger [2] | MIC values in ppm S. aureus [3] | MIC values in ppm E. coli [4] | MIC values in ppm P. aeruginosa [5]
1 | COc1cc(/C=C/c2nc(C(C)(C)C)cs2)cc(O)c1OC [Compound of formula (22)] | >100 ppm | >100 ppm | >100 ppm | >100 ppm | >100 ppm
2 | Oc1ccccc1/C=C/c1nc(-c2ccc(F)cc2)cs1 [Compound of formula (10)] | >100 ppm | >100 ppm | >100 ppm | >100 ppm | >100 ppm
3 | CCOc1cc(/C=C/c2nc(-c3ccccc3)cs2)ccc1O [Compound of formula (53)] | >100 ppm | >100 ppm | >100 ppm | >100 ppm | >100 ppm
4 | COc1cc(/C=C/c2nc(-c3ccccc3)cs2)cc(O)c1OC [Compound of formula (57)] | >100 ppm | >100 ppm | >100 ppm | >100 ppm | >100 ppm
5 | COc1cc(/C=C/c2nc(-c3ccc(N4CCCC4)cc3)cs2)ccc1O [Compound of formula (31)] | >100 ppm | >100 ppm | >100 ppm | >100 ppm | >100 ppm
6 | COc1ccc(/C=C/c2nc(-c3ccc(F)cc3)cs2)cc1O [Compound of formula (6)] | >100 ppm | >100 ppm | >100 ppm | >100 ppm | >100 ppm

Continued, values first:

Row | MIC values in ppm C. albicans [1] | MIC values in ppm A. niger [2] | MIC values in ppm S. aureus [3] | MIC values in ppm E. coli [4] | MIC values in ppm P. aeruginosa [5] | SMILES
7 | >100 ppm | >100 ppm | >100 ppm | >100 ppm | >100 ppm | Cc1cccc(/C=C/c2nc(-c3ccc(N4CCCC4)cc3)cs2)c1O [Compound of formula (36)]
8 | >100 ppm | >100 ppm | >100 ppm | >100 ppm | >100 ppm | COc1cc(/C=C/c2nc(-c3ccc(F)cc3)cs2)cc(O)c1OC [Compound of formula (11)]
9 | >100 ppm | >100 ppm | >100 ppm | >100 ppm | >100 ppm | COc1ccc(/C=C/c2nc(-c3ccc(F)cc3)cs2)c(O)c1 [Compound of formula (9)]
10 | >100 ppm | >100 ppm | >100 ppm | >100 ppm | >100 ppm | CCOc1cc(/C=C/c2nc(CC)cs2)ccc1O [Compound of formula (42)]
11 | >100 ppm | >100 ppm | >100 ppm | >100 ppm | >100 ppm | Oc1cccc(/C=C/c2nc(-c3ccccc3)cs2)c1 [Compound of formula (51)]
12 | >100 ppm | >100 ppm | >100 ppm | >100 ppm | >100 ppm | CCc1csc(/C=C/c2cc(C)c(O)c(C)c2)n1 [Compound of formula (47)]
